Values after ≈ are worked out from the molar mass of the structure shown. Values joined by “and” are separate entries in the source; they are usually repeats but may differ in a detail not shown here. Equal values may be shown once. Active and inactive are the calls of the source. The calls are words filed in the database; no cut-off is given here.
Experiments:
[1] = system: Escherichia coli; experiment: Antimicrobial activity against Escherichia coli NCIM 2574 assessed as zone of inhibition by well diffusion method; format: functional
[2] = system: Proteus mirabilis; experiment: Antimicrobial activity against Proteus mirabilis NCIM 2388 assessed as zone of inhibition by well diffusion method; format: functional
[3] = system: Bacillus subtilis; experiment: Antimicrobial activity against Bacillus subtilis NCIM 2063 assessed as zone of inhibition by well diffusion method; format: functional
[4] = system: Staphylococcus aureus; experiment: Antimicrobial activity against Staphylococcus aureus NCIM 2178 assessed as zone of inhibition by well diffusion method; format: functional
[5] = system: Candida albicans; experiment: Antifungal activity against Candida albicans NCIM 3100 assessed as zone of inhibition by well diffusion method; format: functional
[6] = system: Aspergillus niger; experiment: Antifungal activity against Aspergillus niger ATCC 504 assessed as zone of inhibition by well diffusion method; format: functional
[7] = system: Proteus mirabilis; experiment: Antimicrobial activity against Proteus mirabilis NCIM 2388 assessed as absence of growth by well diffusion method; format: functional
[8] = system: Bacillus subtilis; experiment: Antimicrobial activity against Bacillus subtilis NCIM 2063 assessed as absence of growth by well diffusion method; format: functional
[9] = system: Aspergillus niger; experiment: Antifungal activity against Aspergillus niger ATCC 504 assessed as absence of growth by well diffusion method; format: functional
[10] = system: Mycobacterium tuberculosis; experiment: Antitubercular activity Mycobacterium tuberculosis H37Rv strain ATCC No- 27294 assessed as prevention of color change from blue to pink using Almar Blue measured after 24 hrs by MABA assay; format: functional
[11] = Cytotoxicity against mouse 3T3-L1 cells assessed as cell viability at 12.5 ug/ml measured after 24 hrs by MTT assay relative to control; format: toxicity, cell-based; settings: at 12.5 µg/mL, read-out: Activity
[12] = Cytotoxicity against mouse 3T3-L1 cells assessed as cell viability at 25 ug/ml measured after 24 hrs by MTT assay relative to control; format: toxicity, cell-based; settings: at 25 µg/mL, read-out: Activity
[13] = system: Staphylococcus aureus; experiment: Antimicrobial activity against Staphylococcus aureus NCIM 2178 assessed as absence of growth by well diffusion method; format: functional

Structure (SMILES)	inhibition zone (IZ) [1]	inhibition zone (IZ) [2] [mm]	inhibition zone (IZ) [3] [mm]	inhibition zone (IZ) [4] [mm]	inhibition zone (IZ) [5] [mm]	inhibition zone (IZ) [6] [mm]	MIC [7]	MIC [8]	MIC [9]	MIC [10]	viability at 24 h, 12.5 ug/ml [11] [%]	viability at 24 h, 25 ug/ml [12] [%]	MIC [13]
Cc1ccc(Nc2nc(-c3cn(-c4ccc(F)cc4)nc3-c3ccc(F)cc3)cs2)cc1	inactive	15	18	13	10.2	18.6	125 µg/mL (≈ 281 µM)	15.6 µg/mL and 35.2 µM	15.6 µg/mL and 35.2 µM	3.12 µg/mL and 7.03 µM	99.5	114	–
COc1ccc(Nc2nc(-c3cn(-c4ccc(F)cc4)nc3-c3ccc(F)cc3)cs2)cc1	inactive	14	12	15	11.6	19	125 µg/mL (≈ 271 µM)	7.82 µg/mL (≈ 17 µM)	15.6 µg/mL and 34 µM	3.12 µg/mL and 6.78 µM	113	102	125 µg/mL (≈ 271 µM)
Fc1ccc(-c2nn(-c3ccc(F)cc3)cc2-c2csc(Nc3ccccc3)n2)cc1	inactive	15.2	14	15	12.2	19.25	125 µg/mL (≈ 290 µM)	125 µg/mL (≈ 290 µM)	15.6 µg/mL and 36.3 µM	25 µg/mL and 58.1 µM	–	–	125 µg/mL (≈ 290 µM)
COc1ccc(Nc2nc(-c3cn(-c4ccccc4)nc3-c3ccc(Cl)cc3)cs2)cc1	inactive	14	14.8	15	10	18.2	125 µg/mL (≈ 272 µM)	125 µg/mL (≈ 272 µM)	15.6 µg/mL and 32.5 µM	1.6 µg/mL and 3.49 µM	–	–	125 µg/mL (≈ 272 µM)
OC(Cn1cncn1)(Cn1cncn1)c1ccc(F)cc1F [FLUCONAZOLE]	–	–	–	–	21.6	–	inactive	inactive	7.82 µg/mL and 25.5 µM	–	–	–	inactive
Cc1ccc(Nc2nc(-c3cn(-c4ccc(F)cc4)nc3-c3ccccc3)cs2)cc1	inactive	14.2	14.2	17	10.2	18.6	125 µg/mL (≈ 293 µM)	125 µg/mL (≈ 293 µM)	15.6 µg/mL and 36.7 µM	3.12 µg/mL and 7.34 µM	102	96.2	62.5 µg/mL and 147 µM
Fc1ccc(-c2nn(-c3ccc(F)cc3)cc2-c2csc(Nc3ccc(Cl)cc3)n2)cc1	12 mm	15	14	14	10	19.6	125 µg/mL (≈ 269 µM)	125 µg/mL (≈ 269 µM)	15.6 µg/mL and 33.7 µM	25 µg/mL and 53.9 µM	–	–	125 µg/mL (≈ 269 µM)
CN[C@@H]1[C@H](O[C@H]2[C@H](O[C@H]3[C@H](O)[C@@H](O)[C@H](N=C(N)N)[C@@H](O)[C@@H]3N=C(N)N)O[C@@H](C)[C@]2(O)C=O)O[C@@H](CO)[C@H](O)[C@H]1O [STREPTOMYCIN]	–	21	18.5	21	–	–	7.82 µg/mL and 25.5 µM	7.82 µg/mL and 13.4 µM	inactive	–	–	–	7.82 µg/mL and 13.4 µM

Source: ChEMBL document CHEMBL5620386, “Synthesis, biological screening and in silico studies of new N-phenyl-4-(1,3-diaryl-1H-pyrazol-4-yl)thiazol-2-amine derivatives as potential antifungal and antitubercular agents” (Eur J Med Chem, 2023)
